Data from patent US4089947A, “Antibiotic compositions containing validamycin compounds” (priority 1976, dated 1978).
Where “and” joins values, the source holds several entries; their conditions need not be identical. Equal entries are not always repeated.

Columns and labels:
Pellicularia sasakii [1] = assay: Abnormal branching of hyphal tips of Pellicularia sasakii (agar dilution bioassay); format: cell-based; conditions: for highest dilution factor that causes an abnormal branching at the hyphal tips of Pellicularia sasakii: 1 mg./ml. aqueous solution as stock solution; for dilution unit (maximum dilution which produces abnormal branching): aqueous solution containing 1000 γ/ml., 27° C for 40 hours
Protocol: Therefore, the bioassay of the antibiotics should be conducted in the following manner.
Pellicularia sasakii is used as the test organism employing plain agar as the assay medium. The test organism is cultivated on a potato (sucrose) agar slant for 2 to 5 days, and the resulting culture is used to inoculate at the center of a 9-cm Petri dish plate of modified Pfeffer's medium, which is then incubated at 27° C for 2 days. By the end of this period, the mycelium will have spread over the entire surface of the plate. The growth on the circumference about 3 to 3.5 cm in radius from the center is cut out with a cork borer and the agar disc thus obtained is used as the inoculum.
A serial dilution series of agar plants containing varying concentrations of the antibiotics is prepared in the same manner as a conventional agar dilution method.
A glass disc of 8 mm in diameter and about 0.2 mm thick, is placed in the center of each of the aforementioned dilution series of agar plates, and the agar disc inoculum is then placed on the glass disc. After incubation at 27° C for 40 hours, the result is evaluated. […] The term dilution unit means the value of maximum dilution which produces such abnormal branching.
Modified Pfeffer's medium, which is employed in this assay, has the following composition.
Before using the medium, the following vitamins are added in the specified amounts. (Weight per ml. of medium)
When a 1 mg./ml. aqueous solution of each of validamycins C, D, E and F and validoxylamines A and B is used as a stock solution, the highest dilution factor that causes an abnormal branching at the hyphal tips of Pellicularia sasakii is as follows.

bacteria and fungi = assay: Antimicrobial potency / growth inhibition in vitro; format: cell-based
[2] = pKa' (neutralization, in aqueous solution); format: physicochemical
Text: 3. The elementary analysis, the molecular formulas as calculated therefrom, pKa' values, neutralization equivalents (molecular weight) and optical rotation values are given in Table 2.

Solubilities = format: physicochemical; conditions: methanol
Mice = assay: Acute toxicity in mice, intravenous injection; format: in vivo
Protocol: (§1) The toxicity of the antibiotics can be confirmed, for instance, by administering each of the validamycins C, D, E and F, and validoxylamines A and B, intravenously to mice and measuring the LD50 value, or by measuring the median lethal dose (48 hours) for Oryzias latipes.

Oryzias latipes = assay: Acute toxicity for Oryzias latipes (median lethal dose, 48 hours); format: in vivo; conditions: leaving in water solution
Protocol: as §1

Pellicularia sasakii [3] = assay: Rice sheath blight control test, preventive (prophylactic); format: in vivo; conditions: 10 days after application, untreated 34.4cm
Protocol: (§2) Rice sheath blight control test
(§3) Rice Plants (variety: Kinmaze) are planted in earthen pots 9 cm in diameter, 3 stocks per pot. Seedlings 80 days after potting are tested and 6 pots each of them are grouped.
(§4) Pathogenic fungi Pellicularia sasakii is cultivated on a plate of potato infusion-sugar-agar at 30°C for 48 hours, and its agar disc 10mm in diameter is cut out from a peripheral colony. The disc is inserted into the inside space of the leaf sheath near the soil surface, a disc per stem. The pots are kept in a PVC shelter at the temperature of 32°-25° C and the relative humidity of 100-70%. Inoculation is carried out immediately after the applied drug has been air-dried in the prophylactic test, and 3 days before application in the remedial test.
(§5) 10 days after application of the drug, the length of each stem from ground level to the upper edge of the lesion is directly measured.

Pellicularia sasakii [4] = assay: Rice sheath blight control test, remedial; format: in vivo; conditions: inoculation 3 days before application, untreated 34.4cm
Protocol: as §2, §3, §4, §5

Rhyzoctonia solani = assay: Cucumber damping-off control test; format: in vivo; conditions: 14 days after sowing
Protocol: Cucumber damping-off control test
Rhyzoctonia solani is cultured on barley medium at 28° C for 5 days. A field soil sample is packed into clay pots 9 cm in diameter, which are then sterilized with steam. The chaff inoculum is evenly worked into the cover soil of each pot to the depth of about 3 cm, at the rate of 2g./pot. The pots are kept in an incubation chamber at 28° C for 4 days and, then, transferred to a greenhouse.
As per Experiment 1, the drug is sprayed onto the soil surface at the rate of 30 ml./6 pots/group.
Healthy seeds of cucumber (variety: Yonyo) are sown by burial in the pots immediately after treatment, at the rate of 10 seeds/pot. The pots are then placed in a greenhouse at 32°-28° C.
14 days after sowing, the results are evaluated against the following coefficients of lesion and the degrees of damage are calculated.
Coefficients of lesion (I)
0.5 : Root hairs alone are slightly affected.
1 : Aerial portions near soil surface and roots affected.
2 : Early stage of damping-off.
3 : Affected at germination; growth inhibited.
Degree of damage (%) =(Σ(nI))/3 × N × 100 wherein n means the number of samples corresponding to each coefficient of lesion and N means the total number of plants.

Cladosporium fulvum = assay: Tomato leaf mold control test; format: in vivo; conditions: 50 ppm; 14 days after inoculation; inoculated 3 days before application
Protocol: Tomato leaf mold control test
Tomato plants (variety: ponterosa) are planted in 12 cm in diameter pots, one plant per pot. The seedlings 50 days after potting are used, 6 pots/group.
Applied at the rate of 100 ml./6 pots/group as per Experiment 1.
Pathogenic fungi Cladosporium fulvum is cultured on a potato infusion-sucrose plate at 20° C for 14 days, and a suspension of conidia (5×10^5 /ml.) is prepared from the culture.
The plants are spray-inoculated with the suspension 3 days before application of the drug, at the rate of 5 ml. per pot. The pots are kept in an inoculation chamber at 25° C for 24 hours, and, then they are transferred to a greenhouse.
14 days after inoculation, the specific ratio of the average area of lesion in the leaves is measured.

plant diseases = assay: Control of plant diseases (general statement); format: in vivo; conditions: for controlling effect against plant diseases, for example, the sheath blight of the rice plant: application in vivo; for effectiveness against sheath blight and stem rot of rice plant, damping off and sclerotial blight of vegetables, flowering plants and lumber seedlings: in vivo
[5] = system: men and beasts, as well as to fish; assay: Harmlessness to men, beasts and fish (general statement); conditions: in vivo
useful plants = assay: Effect on useful plants (general statement); format: in vivo; conditions: even when applied in a high concentration

| Molecule | highest dilution factor that causes an abnormal branching at the hyphal tips of Pellicularia sasakii (Pellicularia sasakii [1]) | dilution unit (maximum dilution which produces abnormal branching) (Pellicularia sasakii [1]) | antimicrobial potency / growth inhibition of bacteria and fungi in vitro (bacteria and fungi) | pKa' [2] | solubility in methanol (Solubilities) | LD50 (Mice) | TLm (Oryzias latipes) | Preventive effect (percent of the average length of lesion/stem per control untreated) (Pellicularia sasakii [3]; 3 ppm) | Preventive effect (percent of the average length of lesion/stem per control untreated) (Pellicularia sasakii [3]; 10 ppm) | Preventive effect (percent of the average length of lesion/stem per control untreated) (Pellicularia sasakii [3]; 30 ppm) | Preventive effect (percent of the average length of lesion/stem per control untreated) (Pellicularia sasakii [3]; 100 ppm) | Preventive effect (percent of the average length of lesion/stem per control untreated) (Pellicularia sasakii [3]; 300 ppm) | Remedial effect (percent of the average length of lesion/stem per control untreated) (Pellicularia sasakii [4]; 10 ppm) | Remedial effect (percent of the average length of lesion/stem per control untreated) (Pellicularia sasakii [4]; 30 ppm) | Remedial effect (percent of the average length of lesion/stem per control untreated) (Pellicularia sasakii [4]; 100 ppm) | Remedial effect (percent of the average length of lesion/stem per control untreated) (Pellicularia sasakii [4]; 300 ppm) | Degree of damage (Rhyzoctonia solani; 5 ppm) | Degree of damage (Rhyzoctonia solani; 20 ppm) | Degree of damage (Rhyzoctonia solani; 80 ppm) | Specific area of lesion (Cladosporium fulvum) | also measured |
| --- | --- | --- | --- | --- | --- | --- | --- | --- | --- | --- | --- | --- | --- | --- | --- | --- | --- | --- | --- | --- | --- |
| OCC1=C[C@@H](N[C@@H]2C[C@@H](CO[C@@H]3O[C@H](CO)[C@@H](O)[C@H](O)[C@H]3O)[C@H](O)[C@@H](O)[C@H]2O)[C@H](O)[C@H](O)[C@H]1O [Validamycin D] | 10 | 10 dilution unit/ml. | no antimicrobial potency | 6.0 ± 0.2 | soluble | > 2000 mg/kg | > 1000 ppm | 28% | 5% | 1% | 0% | 0% | 99% | 20% | 11% | 8% | 100% | 93% | 0% | 18% and 25% | controlling effect against plant diseases, for example, the sheath blight of the rice plant (plant diseases): excellent controlling effect; effectiveness against sheath blight and stem rot of rice plant, damping off and sclerotial blight of vegetables, flowering plants and lumber seedlings (plant diseases): very effective; harmfulness to men and beasts, as well as to fish [5]: substantially harmless; effect on germination, growth, yield and other features of useful plants (useful plants): do not substantially affect |
| O=[N+]([O-])c1c(Cl)c(Cl)c(Cl)c(Cl)c1Cl [Pentachloronitrobenzene, reference compound] |  |  |  |  |  |  |  |  |  |  |  |  |  |  |  |  | 100% | 100% | 100% |  |  |
| Methyl arsonic acid ammonium complex salt [MAFA, reference compound] |  |  |  |  |  |  |  | 76% | 51% | 0% | 0% | 0% | 30% | 15% | 13% | 10% |  |  |  |  | Remedial effect (percent of the average length of lesion/stem per control untreated) (Pellicularia sasakii [4]; 3 ppm): 89% |
| OCC1=C[C@H](N[C@H]2C[C@H](CO)[C@@H](O[C@@H]3O[C@@H](CO)[C@@H](O[C@H]4O[C@@H](CO)[C@@H](O)[C@H](O)[C@H]4O)[C@H](O)[C@H]3O)[C@@H](O)[C@H]2O)[C@@H](O)[C@H](O)[C@H]1O [Validamycin E] | 70,000 - 80,000 | 80000 dilution unit/ml. | no antimicrobial potency | 6.1 ± 0.2 | more sparingly soluble | > 2000 mg/kg | > 1000 ppm | 3% | 2% | 0% | 0% | 0% | 12% | 11% | 5% | 3% | 10% | 0% | 0% | 2% | Remedial effect (percent of the average length of lesion/stem per control untreated) (Pellicularia sasakii [4]; 1 ppm): 41%; Remedial effect (percent of the average length of lesion/stem per control untreated) (Pellicularia sasakii [4]; 3 ppm): 14%; controlling effect against plant diseases, for example, the sheath blight of the rice plant (plant diseases): excellent controlling effect; effectiveness against sheath blight and stem rot of rice plant, damping off and sclerotial blight of vegetables, flowering plants and lumber seedlings (plant diseases): very effective; harmfulness to men and beasts, as well as to fish [5]: substantially harmless; effect on germination, growth, yield and other features of useful plants (useful plants): do not substantially affect |
